Data on 6 compounds can be found in patent publication US4713374A, “Ganglioside derivatives” (priority 1984, dated 1987).

One series deals with PC12 cells. The series is described as follows: Neurite sprouting in PC12 cells. The class given is cell-based. The conditions noted are these: 10^-6 M, serum-free vehicle with 50 ng/ml NGF, third day; controls 21.5.
For series [1], the system named is (Na^+, K^+) ATPase of the neuronal membrane. The series is described as follows: (Na+,K+)ATPase activity of the neuronal membrane (rat brain P2 fraction). The format is biochemical. The note with it: concentration 50 (50 nM), incubation with neuronal membranes 37° C. two hours; controls 100; 120 min. On the procedure:
a. Preparation of the raw mitochondrial fraction of rat brain (Fraction P2):
The procedure used in the preparation of P2 fraction was taken from Morgan e coll., Biochem. Biophys. Acta 241, 37 (1971). (The various operations were carried out at 0° to 4° C.; the xg values are average centrifugal forces).
Adult male Sprague Dawley rats (supplied by Charles River) (body weight 150-175 g) were decapitated and their brains were immediately removed and washed in an ice cold isotonic solution. After excision of the cerebellum, the brains were homogenized by effecting 12 up and down movements in a motor-driven glass and Telfon homogenizer (declared radial clearance 0.25 mm; 800 r.p.m.) using 4 vol. of homogenizing solution (0.32M saccharose containing 1 mM potassium phosphate buffer and […] of disodium EDTA, pH 7.27). The homogenized substance, filtered through four layers of fine gauze, was centrifuged at 1000 r.p.m. for 15 minutes. The resulting pellet was washed with the same initial volume of homogenizing solution and centrifuged as described above. The gathered supernatants were centrifuged at 17,500 r.p.m. for 25 minutes (these conditions of gravitational centrifugal force were used to obtain the maximum enrichment of nervous terminations in the fraction) and the pellet was washed four times in 9 volumes (each time) of homogenizing solution and centrifuged (17,500 r.p.m. for 25 minutes).
The final pellet, known as "P2 fraction" contains as its principal component, whole mitochondria and nervous terminations. The final pellet was homogeneously resuspended with a suitable volume of homogenizing solution with a glass and Teflon homogenizer, and used immediately for the test. […]
ATPase activity was measured by spectrophotometry according to Wallick and coll. […] The (Na^+, K^+)ATPase activity is determined by the difference between the total ATPase activity and the dependent ATPase Mg^2+ activity measured in the presence of 3×10^-5 M of Ouabain. […] The ATPase activity was expressed as International Unit (I.U.) (μmoles hydrolized ATP/mg protein/min). […]

On the set-up of series [2]: species or system Swiss mice. The note with it: mouse, in vivo, iv. The protocol: Labelled ganglioside is prepared as described by Suzuki et al. [J. Lipid Res. 13, 687-690 (1972)] and modified by Ghidoni et al. [Ital. J. Biochem. 23, 320-328 (1974)]. The ethyl and isopropyl esters are prepared by esterification of this labelled ganglioside. The specific radioactivity is measured both of the ganglioside and esters.
Swiss mice obtained from Charles River (Calco), weighing about 20-25 g were treated by intravenous route with 10 μC of the products. 2-4-8-12-16 hours after administration, the animals were sacrificed by decapitation and their blood was gathered in heparinized flasks. The nonvolatile radioactivity was determined on blood samples by means of a Packard TRICARB scintillator and then identified with reference to ^3 H ganglioside and to the esters by TLC.

Description for PC12 cells: The cells are then washed three times in a serum-free vehicle. […] This effect is evaluated by counting the number of cells with neurites at the third day.

Take `CCCCCCCCCCCCC/C=C/[C@@H](O)[C@H](CO[C@@H]1O[C@H](CO)[C@@H](O[C@@H]2O[C@H](CO)[C@H](O[C@@H]3O[C@H](CO)[C@H](O)[C@H](O[C@@H]4O[C@H](CO)[C@H](O)[C@H](O)[C@H]4O)[C@H]3NC(C)=O)[C@H](O[C@]3(C(=O)O)C[C@H](O)[C@@H](NC(C)=O)[C@H]([C@H](O)[C@H](O)CO)O3)[C@H]2O)[C@H](O)[C@H]1O)NC(=O)CCCCCCCCCCCCCCCCC` [Monosialoganglioside GM1, ganglioside GM1, reference compound]: the “% of the no. of cells with neurites at 3rd day” value (“% of the no. of cells” below) with PC12 cells was 34.8%. The “% increase in (Na^+, K^+) ATPase activity” value (shortened to “% increase”) in series [1] is recorded as 133%.
Regarding `CCCCCCCCCCCCC/C=C/[C@@H](O)[C@H](CO[C@@H]1O[C@H](CO)[C@@H](O[C@@H]2O[C@H](CO)[C@H](O[C@@H]3O[C@H](CO)[C@H](O)[C@H](O[C@@H]4O[C@H](CO)[C@H](O)[C@H](O)[C@H]4O)[C@H]3NC(C)=O)[C@H](O[C@]3(C(=O)OC)C[C@H](O)[C@@H](NC(C)=O)[C@H]([C@H](O)[C@H](O)CO)O3)[C@H]2O)[C@H](O)[C@H]1O)NC(=O)CCCCCCCCCCCCCCCCC` [Methylic ester of GM1, Methyl ester of the ganglioside GM1], in the series on PC12 cells, the “% of the no. of cells” value is on record as 35.7%. Besides, the “% increase” value in series [1] is recorded as 132%.
For the compound `CCCCCCCCCCCCC/C=C/[C@@H](O)[C@H](CO[C@@H]1O[C@H](CO)[C@@H](O[C@@H]2O[C@H](CO)[C@H](O[C@@H]3O[C@H](CO)[C@H](O)[C@H](O[C@@H]4O[C@H](CO)[C@H](O)[C@H](O)[C@H]4O)[C@H]3NC(C)=O)[C@H](O[C@]3(C(=O)O)C[C@H](O)[C@@H](NC(C)=O)[C@H]([C@H](O)[C@H](O)CO)O3)[C@H]2O)[C@H](O)[C@H]1O)NC(=O)CCCCCCCCCCCCCCCCC` [tritiated ganglioside], in series [2], the “t/2 of first phase of blood kinetic curve” value is “about three”.
Consider `CCCCCCCCCCCCC/C=C/[C@@H](O)[C@H](CO[C@@H]1O[C@H](CO)[C@@H](O[C@@H]2O[C@H](CO)[C@H](O[C@@H]3O[C@H](CO)[C@H](O)[C@H](O[C@@H]4O[C@H](CO)[C@H](O)[C@H](O)[C@H]4O)[C@H]3NC(C)=O)[C@H](O[C@]3(C(N)=O)C[C@H](O)[C@@H](NC(C)=O)[C@H]([C@H](O)[C@H](O)CO)O3)[C@H]2O)[C@H](O)[C@H]1O)NC(=O)CCCCCCCCCCCCCCCCC` [Amide of GM1, Amide of the ganglioside GM1], for which the “% of the no. of cells” value in the series on PC12 cells is listed as 33.3%. Further, the “% increase” value in series [1] is recorded as 128%.
On to `CCCCCCCCCCCCC/C=C/[C@@H](O)[C@H](CO[C@@H]1O[C@H](CO)[C@@H](O[C@@H]2O[C@H](CO)[C@H](O[C@@H]3O[C@H](CO)[C@H](O)[C@H](O[C@@H]4O[C@H](CO)[C@H](O)[C@H](O)[C@H]4O)[C@H]3NC(C)=O)[C@H](O[C@]3(C(=O)OC(C)(C)C)C[C@H](O)[C@@H](NC(C)=O)[C@H]([C@H](O)[C@H](O)CO)O3)[C@H]2O)[C@H](O)[C@H]1O)NC(=O)CCCCCCCCCCCCCCCCC` [Tertiarbutylic ester of GM1, Tertiary butyl ester of the ganglioside GM1], for which, in the series with PC12 cells, the “% of the no. of cells” value was 32.3%.
For `CCCCCCCCCCCCC/C=C/[C@@H](O)[C@H](CO[C@@H]1O[C@H](CO)[C@@H](O[C@@H]2O[C@H](CO)[C@H](O[C@@H]3O[C@H](CO)[C@H](O)[C@H](O[C@@H]4O[C@H](CO)[C@H](O)[C@H](O)[C@H]4O)[C@H]3NC(C)=O)[C@H](O[C@]3(C(=O)NCC)C[C@H](O)[C@@H](NC(C)=O)[C@H]([C@H](O)[C@H](O)CO)O3)[C@H]2O)[C@H](O)[C@H]1O)NC(=O)CCCCCCCCCCCCCCCCC` [Ethylamide of GM1, Ethylamide of the ganglioside GM1], in the series with PC12 cells, the “% of the no. of cells” value is reported as 32.2%.
